Where two headings read alike, the source gives them in different places. Blank lines part the entries; values can stand above or below the molecule they belong to.
Tests used:
C4-2B cells [1] = system: C4-2B cells;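 further: cells treated with a dilution series for 72 h, then MTT added and absorbance read at 600 nm, IC50 fitted from dose-response curves by nonlinear regression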
MCF-7 cells = assay: Growth inhibition, MCF-7 breast cancer cells; type: cell-based; settings: for IC50: Table 10, read-out: Cytotoxicity, IC50 (μM) MCF-7
Description: (§1) All samples were in triplicate.

MDA PCa 2b cells [2] = system: MDA PCa 2b cells;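 further: MDA PCa 2b prostate cancer cells in BRFF-HPC1 with 20% FBS, exposed to compounds for 72 h, viable-cell MTT formazan read as absorbance at 600 nm, 0.5% DMSO vehicle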
Description: (§2) MDA PCa 2b was seeded at the same density in medium BRFF-HPC1 (Athena Enzyme Systems, Baltimore, Md., USA) supplemented with 20% FBS. After overnight incubation, the medium was changed to a fresh medium containing different concentrations of test compounds diluted from stock DMSO solution. The final concentration of DMSO is 0.5%. After 72 h of incubation with test compounds, 20 μL of 3-(4,5-dimethyl thiazol-2-yl)-2,5-diphenyltetrazolium bromide (MTT) solution (5 mg/mL in PBS) were added to each well and incubated further for 2 h. Next, the supernatant was aspirated and the MTT formazan formed by metabolically viable cells was dissolved in 100 μL of isopropanol. The plates were mixed for 30 min, and the absorbance was measured at 600 nm on a plate reader (FLUOstar OPTIMA, BMG LabTech). All samples were in triplicate. The IC50 values were determined from dose-response curves by nonlinear regression using PRISM v5.00 (GraphPad Software Inc, La Jolla, Calif., USA).
(§3) The in vitro cytotoxicity of 1-20 were evaluated by MTT assays in a panel of prostate cancer cell lines, including LNCaP, MDA PCa 2b, 22Rv1, C4-2B and PC-3.

MDA-MB-231 cells = assay: Growth inhibition, MDA-MB-231 breast cancer cells; type: cell-based; settings: for IC50: Table 10, read-out: Cytotoxicity, IC50 (μM) MDA-M B231
Description: as §1

PC-3 cells [3] = system: PC-3 cells
H-1975 cells = assay: Growth inhibition, H-1975 lung cancer cells; type: cell-based; settings: for IC50: Table 10, read-out: Cytotoxicity, IC50 (μM) H-1975
Description: as §1

wild-type human AR = molecular target: T1, wild-type human AR (Homo sapiens, UniProt P10275); assay: Luciferase assay for AR transactivation, wild-type AR, PC-3 cells; type: cell-based; set-up: Antiandrogenic activity evaluated by luciferase assay in PC-3 cells WT: key to the marks not given beside the values; settings: 0.1 nM DHT; for suppression of DHT-induced transactivation of wild-type AR: test compound 0.1-1 μM, PC-3 cells; for Antiandrogenic activity evaluated by luciferase assay in PC-3 cells WT: test compound 1 μM
T1 construct: utilizing plasmid expressing a full length of AR; expressed in transfected cells; host or cells: PC-3 cells, plasmid pCMV-AR-wt
T1 sequence (P10275 1-920): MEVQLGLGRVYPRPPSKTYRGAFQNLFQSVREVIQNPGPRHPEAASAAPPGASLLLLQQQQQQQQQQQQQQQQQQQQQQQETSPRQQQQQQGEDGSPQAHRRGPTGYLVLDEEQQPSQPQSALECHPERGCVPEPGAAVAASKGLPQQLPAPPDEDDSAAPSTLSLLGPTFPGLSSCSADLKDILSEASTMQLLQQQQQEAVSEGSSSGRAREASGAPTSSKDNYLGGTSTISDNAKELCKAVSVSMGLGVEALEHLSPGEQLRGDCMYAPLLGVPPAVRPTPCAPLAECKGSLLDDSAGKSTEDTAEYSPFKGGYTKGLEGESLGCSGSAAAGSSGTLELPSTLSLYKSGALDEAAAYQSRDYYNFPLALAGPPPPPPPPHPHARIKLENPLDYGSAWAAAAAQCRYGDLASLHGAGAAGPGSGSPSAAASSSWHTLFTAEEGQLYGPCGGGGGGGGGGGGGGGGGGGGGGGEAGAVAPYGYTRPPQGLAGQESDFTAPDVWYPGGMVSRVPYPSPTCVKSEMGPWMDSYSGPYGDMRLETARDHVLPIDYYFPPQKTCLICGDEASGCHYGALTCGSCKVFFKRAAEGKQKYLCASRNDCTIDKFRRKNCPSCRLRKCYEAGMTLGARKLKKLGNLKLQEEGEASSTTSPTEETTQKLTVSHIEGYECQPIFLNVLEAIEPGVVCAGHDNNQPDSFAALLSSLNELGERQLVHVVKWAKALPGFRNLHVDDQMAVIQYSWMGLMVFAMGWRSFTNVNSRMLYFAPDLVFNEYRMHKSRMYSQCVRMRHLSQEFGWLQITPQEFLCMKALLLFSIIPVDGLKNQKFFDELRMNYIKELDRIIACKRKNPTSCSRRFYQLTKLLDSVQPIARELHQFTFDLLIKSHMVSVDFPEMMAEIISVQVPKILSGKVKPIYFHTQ
Description: PC-3 cells were transiently transfected with pCMV-MMTV-Luc, Renilla null luciferase and AR expressing plasmids. The cells were treated with 0.1 nM DHT with and without test compound for 24 hr. Relative luciferase activity was determined by dual luciferase assay kit (Promega), standardized to Renilla luciferase control and normalized to 0.1 nM DHT without test compound (100%).
After 16 h, the cells were treated with 0.1 nM of DHT and test compounds at the designated concentration. After further 24 h, the cells were lysed in 100 μL/well passive lysis buffer, and 20 μL of the cell lysates was used for detection of the luciferase activity using Dual Luciferase Assay System (Promega). All experiments were run in triplicate. Relative luciferase activity is determined as the ratio of inducible firefly luciferase luminescence divided by the luminescence of the renilla luciferase control normalized to 0.1 nM DHT without test compounds.
The potency of antagonistic activity: ++>+.
PC-3 cells were transiently transfected with plasmid expressing wild type human AR and MMTV-Luc. […] RLU, relative luciferase units, were normalized to that of 0.1 nM DHT alone.

22Rv1 cells [4] = system: 22Rv1 cells
PC-3 cells [5] = assay: MTT cell growth inhibition, PC-3
22Rv1 cells [6] = assay: MTT cell growth inhibition, 22Rv1; settings: read-out: Cellular IC50 (μM) 22Rv1; Table 9; MTT
DU145 cells = assay: IL-6 secretion, Human IL-6 ELISA; type: cell-based; settings: DU-145 cells, 24 hr
MDA PCa 2b cells [7] = assay: MTT cell growth inhibition, MDA PCa 2b; settings: MTT;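 further: MDA PCa 2b prostate cancer cells in BRFF-HPC1 with 20% FBS, exposed to compounds for 72 h, viable-cell MTT formazan read as absorbance at 600 nm, 0.5% DMSO vehicle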
Description: as §2, §3

C4-2B cells [8] = assay: MTT cell growth inhibition, C4-2B; settings: read-out: Cellular IC50 (μM) C4-2B, Table 9;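 further: cells treated with a dilution series for 72 h, then MTT added and absorbance read at 600 nm, IC50 fitted from dose-response curves by nonlinear regression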
LNCaP cells = settings: human, 72 h
[9] = molecular target: T2, hormone-binding pocket of the AR-LBD (Rattus norvegicus, UniProt P15207); assay: AR fluorescence polarization (FP) competitor assay; settings: FIG. 8
T2 construct: purchased Invitrogen P3018
T2 sequence (P15207 651-882 limits assumed): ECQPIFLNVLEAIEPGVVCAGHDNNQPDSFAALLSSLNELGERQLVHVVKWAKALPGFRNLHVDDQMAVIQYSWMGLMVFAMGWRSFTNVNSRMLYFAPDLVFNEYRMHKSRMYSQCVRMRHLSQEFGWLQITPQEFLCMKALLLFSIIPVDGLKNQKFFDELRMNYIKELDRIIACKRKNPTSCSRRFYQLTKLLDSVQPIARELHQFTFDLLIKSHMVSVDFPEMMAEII
Description: The fluorescence polarization was used as a read-out and normalized to that of DMSO vehicle. Results are reported as average±s.d. of experiments performed in triplicates. DHT is included as a positive control.

HP-LNCaP cells = assay: MTT cellular growth, HP-LNCaP; type: cell-based; settings: FIG. 10
Description: HP-LNCaP cells were grown in the androgen-depleted medium (FIG. 9A) and grow more aggressively than LNCaP cells in the whole medium (FIG. 9B). Cellular growth was evaluated by MTT assays. […] HP-LNCaP cells over-express AR protein (FIG. 10C).

Bic-LNCaP cells = assay: MTT cellular growth, Bic-LNCaP; type: cell-based; settings: FIG. 10
[10] = read-out: Cellular IC50 (μM) PC-3, Table 9

IC50 (C4-2B cells [1]): 1400 nM | IC50 (MDA PCa 2b cells [2]): 2600 nM | IC50 (PC-3 cells [3]): 3500 nM | suppression of DHT-induced transactivation of wild-type AR (wild-type human AR): modest antiandrogenic activity | IC50 (22Rv1 cells [4]): 1700 nM
Structure (SMILES): CC1=C(/C=C/C(=O)/C=C/c2cccc(C(F)(F)F)c2)C(C)(C)CCC1O (racemic) [Compound B25]
effect in MCF-7 breast cancer cell line (MCF-7 cells): effective | IC50 (MCF-7 cells): 5.2 µM | effect in MDA-MB-231 breast cancer cell line (MDA-MB-231 cells): effective | IC50 (MDA-MB-231 cells): 4.4 µM | effect in H-1975 lung cancer cell line (H-1975 cells): effective | IC50 (H-1975 cells): 6.3 µM

Structure (SMILES): CC1(C)CCC(O)C=C1/C=C/C(=O)/C=C/c1csc2ccccc12 (centres unmarked) [Compound B92]
IC50 (PC-3 cells [5]; [10]): 3.3 µM | IC50 (PC-3 cells [5]; read-out: Cytotoxicity in prostate cancer cell lines IC50 (μM), PC-3, Part D table, 72 hours, I.A. = Inactive): 2 µM | IC50 (22Rv1 cells [6]): 1.5 µM | secretion of IL-6 (DU145 cells): suppress secretion | IC50 (MDA PCa 2b cells [7]; read-out: Cytotoxicity in prostate cancer cell lines IC50 (μM), PCa-2b, Part D table, 72 hours): 0.87 µM | IC50 (C4-2B cells [8]): 1.1 µM | Antiandrogenic activity evaluated by luciferase assay in PC-3 cells WT (wild-type human AR): ++

IC50 (C4-2B cells [1]; human, 72 h): 870 nM | IC50 (LNCaP cells): 630 nM | IC50 (MDA PCa 2b cells [2]; human, 72 h): 1300 nM | IC50 (PC-3 cells [5]; [10]): 2.3 µM | IC50 (PC-3 cells [3]; human, 72 h): 2200 nM | competitive binding to the hormone-binding pocket of the AR-LBD [9]: competitive binding | IC50 (22Rv1 cells [6]): 1.2 µM | suppression of DHT-induced transactivation of wild-type AR (wild-type human AR): effective | Antiandrogenic activity evaluated by luciferase assay in PC-3 cells WT (wild-type human AR): ++ | IC50 (22Rv1 cells [4]; human, 72 h): 1100 nM
Structure (SMILES): CC1(C)CCC(O)C=C1/C=C/C(=O)/C=C/c1cnc2ccccc2c1 (centres unmarked) [Compound B95]
effect in MCF-7 breast cancer cell line (MCF-7 cells): effective | IC50 (MCF-7 cells; Homo sapiens, MCF7): 5.5 µM | effect in MDA-MB-231 breast cancer cell line (MDA-MB-231 cells): effective | IC50 (MDA-MB-231 cells; Homo sapiens, MDA-MB-231): 3.6 µM | activity against HP-LNCaP cells (HP-LNCaP cells): remains active | effect in H-1975 lung cancer cell line (H-1975 cells): effective | IC50 (H-1975 cells; Homo sapiens, NCI-H1975): 4.8 µM | IC50 (MDA PCa 2b cells [7]; read-out: Cellular IC50 (μM) PCa 2b, Table 9): 1.3 µM | IC50 (C4-2B cells [8]): 1.4 µM | activity against Bic-LNCaP cells (Bic-LNCaP cells): remains active
